Reference: patent US20260083708A1, “IL-17 MODULATORS AND USES THEREOF” (NNOCARE PHARMA INC., priority 2024, published 2026)

Experiments:
[1] = test system: IL-17AF-induced IL-17 signaling pathway; experiment: Inhibition of IL-17AF-induced IL-17 signaling pathway; assay type: cell-based; settings: Homo sapiens; IL-17AF used instead of IL-17AA; read-out: IC50 for Inhibiting IL-AF Signaling
Source text: (§1) Interleukin-17 (IL-17) reporter cell line (HEK-Blue IL-17, InvivoGen, Catalog Number hkb-i117) is created by genetically engineering human IL-17RA/IL-17RC heterodimeric receptor and downstream adapter protein ACT1 into human embryonic kidney 293 cells (HEK293). These cells also express secreted embryonic alkaline phosphatase (SEAP) reporter gene induced by NF-κB and AP-1. Therefore, IL-17AA can activate NF-κB and AP-1 signaling pathways inside the cells by binding to IL-17RA/RC on cell membrane, leading to expression of SEAP protein. After a colorimetric reaction between SEAP protein and Quanti-Blue solution, the absorbance at 620 nm is measured using a microplate reader (BioTek H1M, Agilent, Catalog Number SH1M-SN) to determine IL-17AA-activated signaling pathway.
(§2) In the experiment, HEK-Blue IL-17 cells were cultured at 37° C. under 5% CO2 conditions using the recommended medium from InvivoGen's instruction. Compounds were serially diluted starting from 10 μM. 4 μL of each compound solution was added to 32 μL of cells (10,000 cells) at 37° C. for 1 hour. After pre-incubation, 4 μL of IL-17AA with a final concentration of 2.5 ng/mL (Sino Biological, Catalog Number 12047-HNAS) was added to the cells, and incubation was continued for additional 20 hours. After incubation, 5 μL of cell culture supernatant was added to 45 μL of Quanti-Blue for the colorimetric reaction. The group without tested compound had the highest absorbance at 620 nm, and the group without IL-17AA had the lowest absorbance at 620 nm.
(§3) Therefore, the percentage of inhibition of tested compound was calculated as
(§4) Experimental results were analyzed using XLfit (IDBS) for 4-parameter nonlinear fitting analysis to provide the IC50 value for each tested compound (Table 1).
Example 44. Inhibition of IL-17AF-Induced IL-17 Signaling Pathway
The same experimental procedure to Example […] was followed where IL-17AF was used instead of IL-17AA.

IL-17AA and IL-17RA = molecular target: T1, IL-17AA and IL-17RA (Homo sapiens, UniProt Q16552); experiment: Competitive inhibition of human IL-17AA and IL-17RA binding (HTRF); settings: recombinant IL-17AA (His-tag) and IL-17RA (hFc-tag); read-out: IC50 for Inhibiting IL-AA/IL-RA Binding
T1 construct: purchased Sino Biological 12047-H07B (IL-17AA); 10895-H02H (IL-17RA)
T1 sequence (Q16552 24-155): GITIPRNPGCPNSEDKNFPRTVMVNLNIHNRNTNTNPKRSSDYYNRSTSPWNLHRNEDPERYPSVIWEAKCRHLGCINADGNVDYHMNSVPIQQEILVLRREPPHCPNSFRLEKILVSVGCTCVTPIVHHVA
Procedure: Example 42. Competitive Inhibition of Human IL-17AA and IL-17RA Binding
Recombinant IL-17AA (His-tag, Catalog Number 12047-H07B) and IL-17RA (hFc-tag, Catalog Number 10895-H02H) were purchased from Sino Biological. In the experiment, 10 μL of IL-17AA (1 nM) or IL-17RA (1 nM) was added to 10 μL of anti-6His-Tb (0.4 nM, Revvity, Catalog Number 61HISTLF) or anti-human IgG-d2 (1 μg/mL, anti-human IgG-d2, Revvity, Catalog Number 61HFCDAF), respectively and incubated at room temperature for 1 hour. Compounds were serially diluted starting from 10 μM. 5 μL of each compound solution was incubated with 5 μL of a mixture of IL-17AA and anti-6His-Tb at room temperature for 2 hours. After pre-incubation, to which was added 10 μL of a mixture of IL-17RA and anti-human IgG-d2, and incubation was continued for additional 20 minutes. Subsequently, a microplate reader (Envision, PerkinElmer) was used to detect fluorescence intensity at 615 nm and 665 nm, and the ratio of intensity thereof indicates the degree of IL-17AA and IL-17RA interaction. The ratio of intensity in the absence of tested compound was the highest value of binding between IL-17AA and IL-17RA, and the ratio of intensity in the absence of IL-17AA was the lowest value.
as §3
Experimental results were analyzed using XLfit (IDBS) for 4-parameter nonlinear fitting analysis, to provide the IC50 value for each tested compound (Table 1).

[2] = test system: IL-17AA-induced IL-17 signaling pathway; experiment: Inhibition of IL-17AA-induced IL-17 signaling pathway in HEK-Blue IL-17 reporter cells (SEAP); assay type: cell-based; settings: Homo sapiens; HEK-Blue IL-17 cells, IL-17AA 2.5 ng/mL, 20 hours; read-out: IC50 for Inhibiting IL-AA Signaling
Source text: Example 43. Inhibition of IL-17AA-Induced IL-17 Signaling Pathway
as §1, §2, §3, §4

Row | IC50 [1] | IC50 (IL-17AA and IL-17RA) | IC50 [2] | Compound
1 | 516 nM | 66 nM | 146 nM | CCn1nccc1C(=O)N[C@H](C(=O)Nc1ccc([C@H](C)[C@@H](NC(=O)COC)c2nncn2C)cc1F)C(C1CC1)C1CC1 [Compound 6, N-((S)-1,1-dicyclopropyl-3-((2-fluoro-4-((1R,2S)-1-(2-methoxyacetamido)-1-(4-methyl-4H-1,2,4-triazol-3-yl)propan-2-yl)phenyl)amino)-3-oxopropan-2-yl)-1-ethyl-1H-pyrazole-5-carboxamide]
2 | 3.7 nM | 2.2 nM | 1.8 nM | CCn1nccc1C(=O)N[C@H](C(=O)Nc1ccc([C@H](C)[C@@H](NC(=O)N(C)C2CC2)c2nncn2CC2CC2)cc1F)C(C1CC1)C1CC1 [Compound 21, N-((S)-1,1-dicyclopropyl-3-((4-((1R,2S)-1-(3-cyclopropyl-3-methylureido)-1-(4-(cyclopropylmethyl)-4H-1,2,4-triazol-3-yl)propan-2-yl)-2-fluorophenyl)amino)-3-oxopropan-2-yl)-1-ethyl-1H-pyrazole-5-carboxamide]
3 | 810 nM | 165 nM | 539 nM | [2H]C([2H])([2H])n1nccc1C(=O)N[C@@H](C(=O)Nc1ccc([C@H](C)[C@@H](NC(=O)CC)c2ncnn2CC2CC2)cc1F)C(C1CC1)C1CC1 [Compound 85, N-((R)-1,1-dicyclopropyl-3-((4-((1R,2S)-1-(1-(cyclopropylmethyl)-1H-1,2,4-triazol-5-yl)-1-propionamidopropan-2-yl)-2-fluorophenyl)amino)-3-oxopropan-2-yl)-1-(methyl-d3)-1H-pyrazole-5-carboxamide]
4 | 202 nM | 41 nM | 13 nM | CCn1nccc1C(=O)N[C@H](C(=O)Nc1ccc([C@H](C)[C@@H](NC(=O)COC)c2ncnn2CC2CC2)cn1)C(C1CC1)C1CC1 [Compound 48, N-((S)-1,1-dicyclopropyl-3-((5-((1R,2S)-1-(1-(cyclopropylmethyl)-1H-1,2,4-triazol-5-yl)-1-(2-methoxyacetamido)propan-2-yl)pyridin-2-yl)amino)-3-oxopropan-2-yl)-1-ethyl-1H-pyrazole-5-carboxamide]
5 | 3.6 nM | 0.9 nM | 2.8 nM | Cc1nonc1C(=O)N[C@H](C(=O)Nc1ccc([C@H](C)[C@@H](NC(=O)COC(F)F)c2ncnn2CC2CC2)cc1F)C(C1CC1)C1CC1 [Compound 65, N-((S)-1,1-dicyclopropyl-3-((4-((1R,2S)-1-(1-(cyclopropylmethyl)-1H-1,2,4-triazol-5-yl)-1-(2-(difluoromethoxy)acetamido)propan-2-yl)-2-fluorophenyl)amino)-3-oxopropan-2-yl)-4-methyl-1,2,5-oxadiazole-3-carboxamide]
6 | 91 nM | 21 nM | 25 nM | CCn1nccc1C(=O)N[C@H](C(=O)Nc1ccc([C@H](C)[C@@H](NC(=O)COC)c2nncn2CC23CC(F)(C2)C3)cc1F)C(C1CC1)C1CC1 [Compound 23, N-((S)-1,1-dicyclopropyl-3-((2-fluoro-4-((1R,2S)-1-(4-((3-fluorobicyclo[1.1.1]pentan-1-yl)methyl)-4H-1,2,4-triazol-3-yl)-1-(2-methoxyacetamido)propan-2-yl)phenyl)amino)-3-oxopropan-2-yl)-1-ethyl-1H-pyrazole-5-carboxamide]
7 | 74 nM | 13 nM | 42 nM | [2H]C([2H])([2H])n1nccc1C(=O)N[C@H](C(=O)Nc1ccc([C@H](C)[C@@H](NC(=O)CO)c2ncnn2CC2CC2)cc1F)C(C1CC1)C1CC1 [Compound 69, N-((S)-1,1-dicyclopropyl-3-((4-((1R,2S)-1-(1-(cyclopropylmethyl)-1H-1,2,4-triazol-5-yl)-1-(2-hydroxyacetamido)propan-2-yl)-2-fluorophenyl)amino)-3-oxopropan-2-yl)-1-(methyl-d3)-1H-pyrazole-5-carboxamide]
8 | 16 nM | 7.4 nM | 5.6 nM | COCC(=O)N[C@@H](c1ncnn1CC1CC1)[C@@H](C)c1ccc(NC(=O)[C@@H](NC(=O)c2ccnn2C)C(C2CC2)C2CC2)c(F)c1 [Compound 53, N-((S)-1,1-dicyclopropyl-3-((4-((1R,2S)-1-(1-(cyclopropylmethyl)-1H-1,2,4-triazol-5-yl)-1-(2-methoxyacetamido)propan-2-yl)-2-fluorophenyl)amino)-3-oxopropan-2-yl)-1-methyl-1H-pyrazole-5-carboxamide]
9 | 1040 nM | 109 nM | 277 nM | COCC(=O)N[C@@H](c1nncn1CC1CC1)[C@@H](C)c1ccc(NC(=O)[C@@H](NC(=O)COCC2(C(F)F)COC2)C(C2CC2)C2CC2)c(F)c1 [Compound 10, (S)-3,3-dicyclopropyl-N-(4-((1R,2S)-1-(4-(cyclopropylmethyl)-4H-1,2,4-triazol-3-yl)-1-(2-methoxyacetamido)propan-2-yl)-2-fluorophenyl)-2-(2-((3-(difluoromethyl)oxetan-3-yl)methoxy)acetamido)propanamide]
10 | 98 nM | 23 nM | 42 nM | CCn1nccc1C(=O)N[C@H](C(=O)Nc1ccc([C@H](C)[C@@H](NC(=O)COC)c2nnc3cnccn23)cc1F)C(C1CC1)C1CC1 [Compound 88, N-((S)-1-((4-((1R,2S)-1-([1,2,4]triazolo[4,3-a]pyrazin-3-yl)-1-(2-methoxyacetamido)propan-2-yl)-2-fluorophenyl)amino)-3,3-dicyclopropyl-1-oxopropan-2-yl)-1-ethyl-1H-pyrazole-5-carboxamide]
11 | 145 nM | 13 nM | 78 nM | Cc1nonc1C(=O)N[C@H](C(=O)Nc1ccc([C@H](C)[C@@H](NC(=O)COC2CN(C)C2)c2ncnn2CC2CC2)cc1F)C(C1CC1)C1CC1 [Compound 56, N-((S)-1,1-dicyclopropyl-3-((4-((1R,2S)-1-(1-(cyclopropylmethyl)-1H-1,2,4-triazol-5-yl)-1-(2-((1-methylazetidin-3-yl)oxy)acetamido)propan-2-yl)-2-fluorophenyl)amino)-3-oxopropan-2-yl)-4-methyl-1,2,5-oxadiazole-3-carboxamide]
12 | 50 nM | 20 nM | 14 nM | CCn1nccc1C(=O)N[C@H](C(=O)Nc1ccc([C@H](C)[C@@H](NC(=O)COC)c2ncn(CC3CC3)n2)cc1F)C(C1CC1)C1CC1 [Compound 20, N-((S)-1,1-dicyclopropyl-3-((4-((1R,2S)-1-(1-(cyclopropylmethyl)-1H-1,2,4-triazol-3-yl)-1-(2-methoxyacetamido)propan-2-yl)-2-fluorophenyl)amino)-3-oxopropan-2-yl)-1-ethyl-1H-pyrazole-5-carboxamide]
13 | 320 nM | 49 nM | 91 nM | CCn1nccc1C(=O)N[C@H](C(=O)Nc1ccc([C@H](C)[C@@H](NC(=O)COC)c2nncn2C2CC2)cc1F)C(C1CC1)C1CC1 [Compound 12, N-((S)-1,1-dicyclopropyl-3-((4-((1R,2S)-1-(4-cyclopropyl-4H-1,2,4-triazol-3-yl)-1-(2-methoxyacetamido)propan-2-yl)-2-fluorophenyl)amino)-3-oxopropan-2-yl)-1-ethyl-1H-pyrazole-5-carboxamide]
